Source: US9192656B2, “Methods and compositions for the treatment of cancer” (QUINTESSENCE BIOSCIENCES, INC., priority 2006, dated 2015)
Substitutions are numbered along the chain they refer to. Names and notes keep the numbering of the source.

Key:
[1] = system: human prostate cancer cell line (DU145); test: In vivo inhibition of tumor growth, DU145 xenograft; set-up: species or system human tumor cells in nude mice; conditions: Example 4, Table 8, RNase 1 75 mg/kg 1×wk, docetaxel 8 mg/kg once a week
Protocol: (§1) Cells from a non-small cell lung cancer cell line (A549) were grown in nine T175 flasks in F12K media and 10% fetal calf serum until the cells were confluent. 4.5×10^6 cells (in 100 microliters) were injected into the right rear flank of 4-5 week old male homozygous (nu/nu) nude mice (Harlan, Madison Wis.). Tumors were allowed to grow to an average size of ≧75 mm^3 before treatments were initiated. Animals of each tumor type, with the properly sized tumors, were divided into treatment groups, including one set of animals treated weekly with vehicle (phosphate buffered saline, PBS). The vehicle and the test agents were all administered by intraperitoneal injection. Each animal was weighed twice a week during treatment. The tumors were measured twice weekly using calipers. Tumor volume (mm^3) was determined by using the formula for an ellipsoid sphere: […]
(§2) The percent tumor growth inhibition (% TGI) is calculated by: […]
This xenograft model was set up as in the previous example except that a human prostate cancer cell line (DU145) was used. The efficacy of wild type human RNase 1 is shown relative to docetaxel. The RNase 1 was administered at 75 mg per kg of body weight of the animal (75 mg/kg 1×wk), while the docetaxel was used at 8 mg/kg once a week. The value of n represents the number of animals in the specific treatment arm of the experiment.
(§3) The xenograft model of this example was set up as in the previous example except that a human prostate cancer cell line (DU145) was used. The efficacy of wild type human RNase 1 is shown. The RNase 1 was administered at 75 mg per kg of body weight of the animal once per week (75 mg/kg 1×wk). The value of n represents the number of animals in the specific treatment arm of the experiment.
as §3, with “example.” for “example except that a human prostate cancer cell line (DU145) was used.”, “three different doses: (1) 15” for “75”, “(15” for “(75”, “1×wk), (2) 75 mg/kg 1×wk, or (3) 300 mg/kg 1×wk.” for “1×wk).”

[2] = Clinical chemistry and complete blood count plus platelets (DU145 xenograft mice); format: in vivo
Protocol: Clinical chemistry and a complete blood count (CBC) plus platelets were performed on whole blood and serum samples collected from the mice 24 hours after the last treatment of the prostate xenograft model above. […] Creatinine was also tested and found not to differ. The levels of the liver enzymes, gamma glutamyl transferase (GGT) and alanine transaminase (ALT) in all treatment groups were similar (GGT data not shown.). The values were determined for the various treatment groups of the prostate (DU145) xenograft study for clinical chemistry (A., B.), complete blood count (C., D.), and platelets (F.). Abbreviations: TCO2, amount of bicarbonate ion (HCO3^−); Anion Gap, [Na+K]—[Cl+HCO3]; ALT, alanine aminotransferase; WBC, white blood count; RBC, red blood count; HGB, hemoglobin; RBC HGB, (CHCM×RBC×MCV)/1000); MCH, mean corpuscular hemoglobin; MCHC, mean corpuscular hemoglobin concentration; RDW, red cell distribution width; MPV, mean platelet volume; HCT, hematocrit; MCV, mean corpuscular volume.

[3] = system: human pancreatic cancer cell line (B×PC-3); test: In vivo inhibition of tumor growth, BxPC-3 xenograft; set-up: species or system human tumor cells in nude mice; conditions: Example 5, Table 9, RNase 1 15 mg/kg qd×5, gemcite 60 mg/kg twice a week
Protocol: as §1, §2
The xenograft model of this example was set up as in the previous example except that a human pancreatic cancer cell line (B×PC-3) was used. The efficacy of wild type human RNase 1 is shown relative to gemcite. The RNase 1 was administered at 15 mg per kg of body weight of the animal five times per week (15 mg/kg qd×5), while the gemcite was used at 60 mg/kg twice a week. The value of n represents the number of animals in the specific treatment arm of the experiment.
as §3, with “pancreatic” for “prostate”, “(B×PC-3)” for “(DU145)”, “three different doses: (1) 30” for “75”, “(30” for “(75”, “1×wk), (2) 75 mg/kg 1×wk, or (3) 150 mg/kg 1×wk.” for “1×wk).”

[4] = system: non-small cell lung cancer cell line (A549); test: In vivo inhibition of tumor growth, A549 xenograft; set-up: species or system human tumor cells in nude mice; conditions: for Starting volume: at start
Protocol: Cells from a non-small cell lung cancer cell line (A549) were grown in nine T175 flasks in F12K media and 10% fetal calf serum until the cells were confluent. 4.5×10^6 cells (in 100 microliters) were injected into the right rear flank of 4-5 week old male homozygous (nu/nu) nude mice (Harlan, Madison Wis.). Tumors were allowed to grow to an average size of ≧75 mm^3 before treatments were initiated. Animals of each tumor type, with the properly sized tumors, were divided into treatment groups, including one set of animals treated weekly with vehicle (phosphate buffered saline, PBS). The vehicle and the test agents were all administered by intraperitoneal injection. Each animal was weighed twice a week during treatment. The tumors were measured twice weekly using calipers. Tumor volume (mm^3) was determined by using the formula for an ellipsoid sphere:
[formula] The efficacy of wild type human RNase 1 is shown relative to cisplatin. The RNase 1 was administered at 75 mg per kg of body weight of the animal once a week (75 mg/kg 1×wk), while the cisplatin was used at 6 mg/kg once a week. The value of n represents the number of animals in the specific treatment arm of the experiment.
as §2
The xenograft model of this example was set up with the human non-small cell lung cancer cell line (A549) as in the previous examples. The efficacy of wild type human RNase 1 is shown relative to tarceva. The RNase 1 was administered at 75 mg per kg of body weight of the animal (75 mg/kg 1×wk) or 150 mg/kg 1×wk. Tarceva was given orally with doses of 50 mg/kg twice a week. The value of n represents the number of animals in the specific treatment arm of the experiment.

[5] = system: non-small cell lung cancer; test: Xenograft models of non-small cell lung cancer (RNase 1 variants); format: in vivo, mice; conditions: for (Final − start)/Control: relative to vehicle; for Starting volume: tumor volume at start; for tumor growth inhibition (in words): xenograft model of non-small cell lung cancer
Protocol: as §1, §2

[6] = system: human breast cancer cell line (MDA-MB-231); test: In vivo inhibition of tumor growth, MDA-MB-231 xenograft; set-up: species or system human tumor cells in nude mice; conditions: Example 10, Table 14, female mice, RNase 1 75 mg/kg 1×wk, doxorubicin 3 mg/kg once per week
Protocol: as §1, §2
The xenograft model of this example was set up as in the previous example except that a human breast cancer cell line (MDA-MB-231) and female mice were used. The efficacy of wild type human RNase 1 is shown relative to doxorubicin. The RNase 1 was administered at 75 mg per kg of body weight of the animal once per week (75 mg/kg 1×wk), while the doxorubicin was given at 3 mg/kg once per week. The value of n represents the number of animals in the specific treatment arm of the experiment.

[7] = Example 6, Table 10, orally 50 mg/kg twice a week
[8] = Example 3, Table 7, i.p., RNase 1 75 mg/kg 1×wk, cisplatin 6 mg/kg once a week

For CC(=O)O[C@@]12CO[C@@H]1C[C@H](O)[C@@]1(C)C(=O)[C@H](O)C3=C(C)[C@@H](OC(=O)[C@H](O)[C@@H](NC(=O)OC(C)(C)C)c4ccccc4)C[C@@](O)([C@@H](OC(=O)c4ccccc4)[C@H]21)C3(C)C [Docetaxel, (2R,3S)-N-carboxy-3-phenylisoserine, N-tert-butyl ester, 13-ester with 5b-20-epoxy-12a,4,7b,10b,13a-hexahydroxytax-11-en-9-one 4-acetate 2-benzoate, trihydrate, reference compound], the “% TGI” value [1] was 92%, the “(Final − start)” value [1] was 180 mm^3 and the “(Final − start)/Control” value [1] was 0.08. For the same molecule, the Final volume [1] was 249 mm^3, the Starting volume ([1]; at start) was 60 mm^3 and the Creatinine versus vehicle ([2]; 24 hours after the last treatment) was “not to differ”. For the same molecule, the “Clinical chemistry and complete blood count plus platelets, all tests, versus vehicle” value ([2]; whole blood and serum 24 hours after the last treatment, Mann-Whitney U test) was “not to be significantly different”.

In the case of Nc1ccn([C@@H]2O[C@H](CO)[C@@H](O)C2(F)F)c(=O)n1 [Gemcite, reference compound], the “% TGI” value [3] is reported as 60%, the “(Final − start)” value [3] is reported as 427 mm^3 and the “(Final − start)/Control” value [3] is reported as 0.40. The Final volume [3] was 505 mm^3 and the Starting volume ([3]; at start) was 78 mm^3.

With C#Cc1cccc(Nc2ncnc3cc(OCCOC)c(OCCOC)cc23)c1 [Tarceva, N-(3-ethynylphenyl)-6,7-bis(2-methoxyethoxy)quinazolin-4-amine, reference compound] the “% TGI” value [4, 7] was 77%, the “(Final − start)” value [4, 7] was 181 mm^3 and the “(Final − start)/Control” value [4, 7] was 0.23. For the same molecule, the Final volume [4, 7] was 265 mm^3 and the Starting volume [4, 7] was 84 mm^3.

For N.N.[Cl][Pt][Cl] [cisplatin, Cisplatin, reference compound], the “% TGI” value ([5]; Table 2, FIG. 1) was 68%, the “(Final − start)” value ([5]; Table 2, FIG. 1) was 290 mm^3 and the Final volume ([5]; Table 2, FIG. 1) was 369 mm^3. The “(Final − start)/Control” value ([5]; Table 2, FIG. 1) was 0.32, the Starting volume ([5]; Table 2, FIG. 1) was 79 mm^3 and the “% TGI” value [4, 8] was 81%. For the same molecule, the “(Final − start)” value [4, 8] was 58 mm^3, the “(Final − start)/Control” value [4, 8] was 0.19 and the Final volume [4, 8] was 130 mm^3. The Starting volume [4, 8] was 72 mm^3.

With COc1cccc2c1C(=O)c1c(O)c3c(c(O)c1C2=O)C[C@@](O)(C(=O)CO)C[C@@H]3O[C@H]1C[C@H](N)[C@H](O)[C@H](C)O1 [doxorubicin, reference compound] the “% TGI” value [6] was 84%, the “(Final − start)” value [6] was 22 mm^3 and the “(Final − start)/Control” value [6] was 0.16. It also gave a Final volume [6] of 86 mm^3 and a Starting volume ([6]; at start) of 64 mm^3.

B1: G38R/R39D/L86E/N88R/G89D/R91D RNase 1: variant of human RNase 1 with substitutions G38R, R39D, L86E, N88R, G89D, R91D (protein)
chain: KESRAKKFQRQHMDSDSSPSSSSTYCNQMMRRRNMTQRDCKPVNTFVHEPLVDVQNVCFQEKVTCKNGQGNCYKSNSSMHITDCRETRDSDYPNCAYRTSPKERHIIVACEGSPYVPVHFDASVEDST
For B1, the “% TGI” value ([5]; Table 2, FIG. 1) was 28%, the “(Final − start)” value ([5]; Table 2, FIG. 1) was 647 mm^3 and the Final volume ([5]; Table 2, FIG. 1) was 723 mm^3. For the same molecule, the “(Final − start)/Control” value ([5]; Table 2, FIG. 1) was 0.72, the Starting volume ([5]; Table 2, FIG. 1) was 76 mm^3 and the “tumor growth inhibition (in words)” value [5] was “displayed tumor growth inhibition”.

B2: R4C/K7A/G38R/R39D/L86E/N88R/G89D/R91D/V118C RNase 1: variant of human RNase 1 with substitutions R4C, K7A, G38R, R39D, L86E, N88R, G89D, R91D, V118C (protein)
chain: B1 chain with R4C, K7A, V118C
For B2, the “% TGI” value ([5]; Table 4, FIG. 3) was 36%, the “(Final − start)” value ([5]; Table 4, FIG. 3) was 478 mm^3 and the Final volume ([5]; Table 4, FIG. 3) was 552 mm^3. The “(Final − start)/Control” value ([5]; Table 4, FIG. 3) was 0.36, the Starting volume ([5]; Table 4, FIG. 3) was 74 mm^3 and the “tumor growth inhibition (in words)” value [5] was “demonstrated measurable tumor growth inhibition”.

B3: L86E/N88R/G89D/R91D RNase 1: variant of human RNase 1 with substitutions L86E, N88R, G89D, R91D (protein)
chain: B1 chain with R38G, D39R
For B3, the “% TGI” value ([5]; Table 2, FIG. 1) was 40%, the “(Final − start)” value ([5]; Table 2, FIG. 1) was 540 mm^3 and the Final volume ([5]; Table 2, FIG. 1) was 624 mm^3. For the same molecule, the “(Final − start)/Control” value ([5]; Table 2, FIG. 1) was 0.60, the Starting volume ([5]; Table 2, FIG. 1) was 84 mm^3 and the “tumor growth inhibition (in words)” value [5] was “displayed tumor growth inhibition”.

B4: R4C/G38R/R39D/L86E/N88R/G89D/R91D/V118C RNase 1: variant of human RNase 1 with substitutions R4C, G38R, R39D, L86E, N88R, G89D, R91D, V118C (protein)
chain: B1 chain with R4C, V118C
With B4 the “% TGI” value ([5]; Table 3, FIG. 2) was 48%, the “(Final − start)” value ([5]; Table 3, FIG. 2) was 1022 mm^3 and the Final volume ([5]; Table 3, FIG. 2) was 1130 mm^3. The “(Final − start)/Control” value ([5]; Table 3, FIG. 2) was 0.52, the Starting volume ([5]; Table 3, FIG. 2) was 108 mm^3 and the “tumor growth inhibition (in words)” value [5] was “impacted tumor growth”.
